These are literature values, as cited in patent publication US20040142914A1, “Extended transdermal contraceptive regimens” (priority 2002, published 2004).

The conditions of the data set: humans.

For the compound `C#C[C@]1(OC(C)=O)CC[C@H]2[C@@H]3CCC4=CC(=NO)CC[C@@H]4[C@H]3CC[C@@]21CC` (mixture of isomers) [norgestimate], the “share of norgestimate converted to norelgestromin in vivo” value is given as no less than 80%.
